# Reference: ChEMBL document CHEMBL1201862, “PubChem BioAssay data set” (2004)
#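 The compound was tested at five concentrations on cells cultured in 96-well plates, with a 48-hour exposure period. GI50 is the concentration that inhibits growth by half.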 Activity calls are given as the source filed them. Rule as the data show it: active = GI50 up to about 1.1 µM and inactive = higher.
# Columns and labels:
# Test in all cases: NCI tumour cell line growth inhibition, 48 h
# [1] = system: A498
# [2] = system: COLO 205
# [3] = system: EKVX
# [4] = system: HCC 2998
# [5] = system: HCT-15
# [6] = system: HOP-62
# [7] = system: HOP-92
# [8] = system: M14
# [9] = system: MDA-MB-231
# [10] = system: MDA-MB-435
# [11] = system: MOLT-4
# [12] = system: NCI-H522
# [13] = system: OVCAR-8
# [14] = system: SF-268
# [15] = system: SF-295
# [16] = system: SK-MEL-28
# [17] = system: SN12C
# [18] = system: SR
# [19] = system: U-251
# [20] = system: LOX IMVI
SMILES,GI50 [1],GI50 [2],GI50 [3],GI50 [4],GI50 [5] [µM],GI50 [6],GI50 [7],GI50 [8],GI50 [9],GI50 [10],GI50 [11],GI50 [12],GI50 [13],GI50 [14],GI50 [15],GI50 [16],GI50 [17],GI50 [18],GI50 [19],GI50 [20]
CC(C)(C)c1ccc(O)c(C(c2ccc([N+](=O)[O-])cc2)c2cc(C(C)(C)C)ccc2O)c1,2.11 µM (inactive),2.5 µM (inactive),1.97 µM (inactive),1.95 µM (inactive),2.13,1.85 µM (inactive),2.02 µM (inactive),1.68 µM (inactive),1.87 µM (inactive),1.78 µM (inactive),2.07 µM (inactive),2.11 µM (inactive),2.56 µM (inactive),1.63 µM (inactive),1.98 µM (inactive),1.74 µM (inactive),2.38 µM (inactive),2.4 µM (inactive),2.28 µM (inactive),–
Cn1ccnc1Sc1ccc(/C=N/NC(=O)c2ccccc2O)cc1[N+](=O)[O-],> 100 µM (inactive),22.2 µM (inactive),94 µM (inactive),96.4 µM (inactive),39.6,73.6 µM (inactive),> 100 µM (inactive),> 100 µM (inactive),> 100 µM (inactive),57 µM (inactive),0.428 µM (active),41.7 µM (inactive),> 100 µM (inactive),48.8 µM (inactive),> 100 µM (inactive),> 100 µM (inactive),55 µM (inactive),2.27 µM (inactive),66.4 µM (inactive),65.2 µM (inactive)
CCCCC[C@@H]1OCO[C@@]2(C)/C=C(C)\C=C/C(=O)O[C@H]([C@@H](C)[C@@H](O)[C@H](C)[C@@]3(O)C[C@@H](O[C@H]4C[C@@H](O)[C@H](O)[C@@H](C)O4)[C@H](C)[C@@H](C)O3)[C@@H](OC)/C=C\C=C(\C)C[C@@H]1[C@@H]2O (stereo in doubt),< 0.005 µM (active),< 0.005 µM (active),< 0.005 µM (active),< 0.005 µM (active),0.5,0.0573 µM (active),< 0.005 µM (active),< 0.005 µM (active),0.0239 µM (active),< 0.005 µM (active),< 0.005 µM (active),< 0.005 µM (active),< 0.005 µM (active),< 0.005 µM (active),< 0.005 µM (active),0.0724 µM (active),0.0231 µM (active),< 0.005 µM (active),< 0.005 µM (active),< 0.005 µM (active)
COC(=O)C1(O)c2ccccc2N=C2C(=O)c3ccccc3N21 (stereo not drawn) [METHYLISATOID],> 100 µM (inactive),> 100 µM (inactive),> 100 µM (inactive),> 100 µM (inactive),> 100,> 100 µM (inactive),> 100 µM (inactive),–,41.6 µM (inactive),12.2 µM (inactive),> 100 µM (inactive),> 100 µM (inactive),> 100 µM (inactive),> 100 µM (inactive),> 100 µM (inactive),> 100 µM (inactive),> 100 µM (inactive),> 100 µM (inactive),> 100 µM (inactive),59.7 µM (inactive)
NS(=O)(=O)c1ccc(NC(=O)c2cccc3cc4ccccc4nc23)cc1,> 43.7 µM (inactive),12.2 µM (inactive),> 100 µM (inactive),> 100 µM (inactive),12.6,> 58.6 µM (inactive),15.1 µM (inactive),> 72.1 µM (inactive),> 100 µM (inactive),34.3 µM (inactive),2.7 µM (inactive),17.1 µM (inactive),6.3 µM (inactive),56.9 µM (inactive),16.3 µM (inactive),> 91 µM (inactive),20.8 µM (inactive),4.58 µM (inactive),23.4 µM (inactive),6.14 µM (inactive)
COC(=O)c1cc2c(o1)Sc1ccccc1NC2=O,> 100 µM (inactive),> 100 µM (inactive),–,> 100 µM (inactive),> 100,52.1 µM (inactive),> 100 µM (inactive),> 100 µM (inactive),> 100 µM (inactive),> 100 µM (inactive),> 100 µM (inactive),2.75 µM (inactive),68.5 µM (inactive),31.8 µM (inactive),> 100 µM (inactive),> 100 µM (inactive),> 100 µM (inactive),> 100 µM (inactive),83.2 µM (inactive),> 100 µM (inactive)
O=c1[nH]nc(-c2ccccc2)n1/N=C/c1cccnc1,27 µM (inactive),–,71.1 µM (inactive),95.5 µM (inactive),61.1,> 100 µM (inactive),61.9 µM (inactive),> 100 µM (inactive),48.8 µM (inactive),64.7 µM (inactive),64 µM (inactive),61.8 µM (inactive),> 100 µM (inactive),> 100 µM (inactive),> 100 µM (inactive),> 100 µM (inactive),65 µM (inactive),52.7 µM (inactive),76.4 µM (inactive),> 100 µM (inactive)
COc1ccc(C(=O)c2c(-c3ccccc3NC(=O)C(F)(F)F)[nH]c3ccccc23)cc1,2.17 µM (inactive),4.05 µM (inactive),11.8 µM (inactive),3.4 µM (inactive),4.98,9.16 µM (inactive),12.4 µM (inactive),14.3 µM (inactive),7.28 µM (inactive),9.89 µM (inactive),2.93 µM (inactive),7.33 µM (inactive),6.19 µM (inactive),12.8 µM (inactive),12.1 µM (inactive),13.6 µM (inactive),14.6 µM (inactive),2.81 µM (inactive),2.56 µM (inactive),4.35 µM (inactive)
CC(C)(C)c1cc(C(P(=O)(c2ccccc2)c2ccccc2)P(=O)(c2ccccc2)c2ccccc2)cc(C(C)(C)C)c1O,2.74 µM (inactive),1.87 µM (inactive),2.98 µM (inactive),1.72 µM (inactive),2.96,2.56 µM (inactive),2.43 µM (inactive),1.75 µM (inactive),2.76 µM (inactive),1.9 µM (inactive),2.88 µM (inactive),2.28 µM (inactive),2.44 µM (inactive),2.93 µM (inactive),1.92 µM (inactive),1.95 µM (inactive),3.39 µM (inactive),2.28 µM (inactive),2.77 µM (inactive),1.92 µM (inactive)
COC(=O)C(=O)C(C(=O)C(=O)Nc1nc2ccc(C)cc2s1)c1nc2ccc([N+](=O)[O-])cc2nc1O (stereo not drawn),> 100 µM (inactive),–,68.4 µM (inactive),> 100 µM (inactive),> 100,> 100 µM (inactive),65.2 µM (inactive),> 100 µM (inactive),> 100 µM (inactive),> 100 µM (inactive),–,> 100 µM (inactive),> 100 µM (inactive),> 100 µM (inactive),> 100 µM (inactive),> 100 µM (inactive),> 100 µM (inactive),> 100 µM (inactive),> 100 µM (inactive),> 100 µM (inactive)
CC(C)NC1(C(N)=O)CCN(Cc2ccccc2)CC1,> 100 µM (inactive),> 100 µM (inactive),> 100 µM (inactive),–,> 100,> 100 µM (inactive),> 100 µM (inactive),> 100 µM (inactive),> 100 µM (inactive),> 100 µM (inactive),> 100 µM (inactive),> 100 µM (inactive),> 100 µM (inactive),> 100 µM (inactive),> 100 µM (inactive),> 100 µM (inactive),> 100 µM (inactive),> 100 µM (inactive),> 100 µM (inactive),> 100 µM (inactive)
Cc1ccc(C)c(COCCOCn2cc(N3CCOCC3)c(=O)[nH]c2=O)c1,> 100 µM (inactive),> 100 µM (inactive),> 100 µM (inactive),> 100 µM (inactive),> 100,–,> 100 µM (inactive),> 100 µM (inactive),> 100 µM (inactive),> 100 µM (inactive),> 100 µM (inactive),> 100 µM (inactive),> 100 µM (inactive),> 100 µM (inactive),> 100 µM (inactive),> 100 µM (inactive),> 100 µM (inactive),> 100 µM (inactive),> 100 µM (inactive),> 100 µM (inactive)
COc1ccc(C2=C(Cl)c3cc(OC)c(OC)cc3C2=O)cc1OC,18.1 µM (inactive),3.16 µM (inactive),20.1 µM (inactive),22.6 µM (inactive),6.9,15.3 µM (inactive),1.8 µM (inactive),4.84 µM (inactive),16.4 µM (inactive),15.9 µM (inactive),3.63 µM (inactive),12.6 µM (inactive),16.9 µM (inactive),18.9 µM (inactive),> 100 µM (inactive),–,18 µM (inactive),6.11 µM (inactive),–,12 µM (inactive)
CC(=O)OC1CCC2C3CCc4c(C)ccc(OS(=O)(=O)c5ccccc5)c4C3CCC12C (stereo not drawn),32.5 µM (inactive),18.6 µM (inactive),46.9 µM (inactive),64.9 µM (inactive),7.73,26.4 µM (inactive),6.55 µM (inactive),–,19.3 µM (inactive),41.7 µM (inactive),6.32 µM (inactive),27.2 µM (inactive),–,> 100 µM (inactive),25.5 µM (inactive),> 100 µM (inactive),> 100 µM (inactive),6.82 µM (inactive),13.6 µM (inactive),7.41 µM (inactive)
